Our source for the melting point values is the Bradley open melting point set (2014).

“And” between values parts separate entries of the source, which are not always exact repeats. Equal values may be shown once.

`CC(C)C(C)C` [2,3-dimethylbutane]: the melting point was -129 °C.

The compound `BrCC(Br)Br` [1,1,2-tribromoethane] registered a melting point of -29 °C.

Turning to `c1ccc2c(c1)Cc1ccccc1-2` [fluorene], the melting point is 114 °C and 116 °C.

`NC(CC(=O)O)C(=O)O` (stereo not given) [aspartic acid]: the melting point is 275 °C.

`Cc1ccccc1-c1ccccc1P(C(C)(C)C)C(C)(C)C` [2-(di-tert-butylphosphino)-2'-methylbiphenyl] had a melting point of 92 °C.

Take `CCOc1ccc(NC(C)=O)cc1` [4-ethoxyacetanilide]: the melting point worked out at 135 °C.

`Oc1cc(Cl)ccc1Cl` [2,5-dichlorophenol]: the melting point stood at 57 °C.

Regarding `O=C(O)C(F)(F)C(F)(F)C(F)(F)C(F)(F)C(F)(F)C(F)(F)C(F)(F)F` [Pentadecafluorooctanoic acid], the melting point turned out to be 55.5 °C.

On to `O=c1[nH]c2ccccc2n1C1CCN(CCCC(c2ccc(F)cc2)c2ccc(F)cc2)CC1` [Pimozide], for which the melting point was found to be 216 °C.

As to `OC(c1ccccc1)(c1ccccc1)C1CCNCC1` [azacyclonol], the melting point came to 160 °C.

The compound `C#CCCCCCCCC` [Dec-1-yne] displayed a melting point of -44 °C.

In turn, `O=C(/C=C/c1ccccc1)n1ccnc1` [1-(trans-cinnamoyl)imidazole] had a melting point of 130 °C.

Turning to `C1CSCCSCCNCCSCCSCCN1` [1,4,10,13-tetrathia-7,16-diazacyclooctadecane], the melting point was 130 °C.

In the case of `Brc1ccnc(-c2ccc(Br)nc2)c1` [4,6'-dibromo-2,3'-bipyridine], the melting point came out at 129 °C.

In turn, `Cc1ccc(C)c(CC(=O)O)c1` [2,5-dimethylphenylacetic acid] had a melting point of 128 °C.

For the compound `CCOCC` [Diethyl ether], the melting point is -116 °C.

Turning to `CCCCCCCCCCC(=O)O` [undecanoic acid], the melting point came out at 28.6 °C.

Take `CC(=O)[C@H]1CC[C@H]2[C@@H]3CCC4=CC(=O)CC[C@]4(C)[C@H]3CC[C@]12C` [Progesterone]: the melting point was determined as 121 °C.

In the case of `c1cc2ccc1CCc1ccc(cc1)CC2` [[2.2]paracyclophane], the melting point turned out to be 286 °C.

Compound `COc1ccc(OC)cc1` [p-dimethoxybenzene] returned a melting point of 60 °C.

In turn, `CC(C)c1ccc(B(O)O)cc1` [4-isopropylbenzeneboronic acid] had a melting point of 143 °C.

For the compound `CC(=O)CC(C)(C)O` [4-Hydroxy-4-methylpentan-2-one], the melting point was -50 °C.

Regarding `COc1ccc(C(=O)O)cc1` [p-anisic_acid], the melting point was found to be 184 °C.

The compound `O=[N+]([O-])c1cc(I)c(O)c(I)c1` [2,6-Diiodo-4-nitrophenol] returned a melting point of 157 °C.

Regarding `CCOC(=O)Cc1ccc(N)cc1` [ethyl 4-aminophenylacetate], the melting point amounted to 47 °C.

For the compound `CCCCCCCCCC=O` [decanal], the melting point is -5 °C.

Turning to `CCC(=O)O[C@](Cc1ccccc1)(c1ccccc1)[C@H](C)CN(C)C` [propoxyphene], the melting point was 75.5 °C.

`CCCCC(C)=O` [2-hexanone] registered a melting point of -56 °C.

For `CCCCCC=O` [hexanaldehyde], the melting point was -56 °C.

`N#Cc1ccccc1C=O` [2-cyanobenzaldehyde] had a melting point of 104 °C.

As to `CC(=O)N(C1=NC(=O)/C(=C/c2cc(C)n(-c3ccc(C)cc3)c2C)S1)c1ccccc1` [OSM-S-50], the melting point is 257 °C.

For the compound `C=CCCC` [Pent-1-ene], the melting point was -165 °C.

Compound `Nc1ccc([N+](=O)[O-])cc1` [4-nitroaniline] [listing 1 of 2 here] displayed a melting point of 148 °C.

`BrCCOc1ccccc1` [2-phenoxyethyl bromide] registered a melting point of 33 °C.

As for `O=C1CCC(N2C(=O)c3ccccc3C2=O)C(=O)N1` (stereo not given) [Thalidomide], the melting point was 270 °C.

Compound `Cc1cccc(C)c1O` [2,6-dimethylphenol] gave a melting point of 46 °C.

`CC(=O)C1=C2C=CCC=C2N=C1` [3-Acetylindole] came in with a melting point of 194 °C.

`COc1ccc(I)cc1N` [5-iodo-2-methoxyaniline] came in with a melting point of 86 °C.

`COc1ccccc1N` [o-anisidine] had a melting point of 6 °C.

For `CN(C)C=O` [dimethylformamide], the melting point was -61 °C.

For `N#CCc1cccc2ccccc12` [1-naphthylacetonitrile], the melting point came to 34 °C.

Compound `OC[C@H]1O[C@H](O)[C@H](O)[C@@H](O)[C@@H]1O` [alpha-D-Glucopyranose] returned a melting point of 154 °C.

On to `Oc1ccccc1-c1ccccc1` [o-phenylphenol], for which the melting point turned out to be 60 °C.

With `Cc1ncc([N+](=O)[O-])n1CCO` [Metronidazole], the melting point was 160 °C.

For `OCCN1CCN(CCCN2c3ccccc3Sc3ccc(Cl)cc32)CC1` [perphenazine], the melting point amounted to 94 °C.

For the compound `Oc1ccccc1O` [catechol], the melting point is 106 °C.

Take `CNC(=S)NCO` [noxythiolin]: the melting point was 88 °C.

`CCCCCCCCCCCCCO` [1-tridecanol] yielded a melting point of 34 °C.

Regarding `Oc1cccc(Cl)c1` [3-chlorophenol], the melting point came to 32.5 °C.

Regarding `C[N+](=O)[O-]` [nitromethane], the melting point was -29 °C.

Compound `Nc1ccc(I)cc1` [4-Iodoaniline] returned a melting point of 61 °C.

For `Clc1cccc(Cl)c1Cl` [1,2,3-trichlorobenzene], the melting point was 55 °C and 53 °C (2×).

Consider `O=C1CCC(N2C(=O)c3ccccc3C2=O)C(=O)N1` (stereo not given) [thalidomide], for which the melting point was determined as 270 °C.

`CCC(=O)O` [Propionic acid] displayed a melting point of -20.8 °C.

`OCC(CO)(CO)CO` [Pentaerythritol] displayed a melting point of 260 °C.

`CCI` [iodoethane] yielded a melting point of -108 °C.

On to `Clc1cccc(Cl)c1N=C1NCCN1` [clonidine], for which the melting point turned out to be 130 °C.

Regarding `O=C(CS(=O)C(c1ccccc1)c1ccccc1)NO` (stereo not given) [adrafinil], the melting point worked out at 159 °C.

In the case of `CC(=O)Nc1ccccc1/C=C/c1ccccc1` [N-{2-[(E)-2-phenylethenyl]phenyl}acetamide], the melting point amounted to 113 °C.

On to `Cc1ccc(N)cc1[N+](=O)[O-]` [4-methyl-3-nitroaniline], for which the melting point was determined as 77 °C.

With `CN(C)C(=S)Sc1ccc2ccccc2c1` [naphthalen-2-yl dimethyldithiocarbamate], the melting point was 114 °C.

For `Cc1cc(C(=O)O)no1` [5-methylisoxazole-3-carboxylic acid], the melting point amounted to 172 °C.

`CC(Oc1c(Cl)cccc1Cl)C1=NCCN1` (stereo not given) [lofexidine] displayed a melting point of 126 °C.

Compound `O=C(O)C(CBr)CBr` [3-bromo-2-(bromomethyl)propionic acid] showed a melting point of 100 °C.

As to `CC(=O)OC[C@H]1O[C@H](OC(C)=O)[C@H](OC(C)=O)[C@@H](OC(C)=O)[C@@H]1OC(C)=O` [alpha-D-glucose pentaacetate], the melting point is 111 °C.

As to `C=CC(C)CC` (stereo not given) [3-methyl-1-pentene], the melting point is -153 °C.

For `O=Cc1ccc(C(F)(F)F)cc1` [4-(trifluoromethyl)benzaldehyde], the melting point amounted to 2 °C.

Regarding `COC(=O)c1ncoc1C(=O)OC` [dimethyl oxazole-4,5-dicarboxylate], the melting point was 75 °C.

Turning to `Cc1ccccc1N1C(=O)c2cc(S(N)(=O)=O)c(Cl)cc2NC1C` (stereo not given) [Metolazone], the melting point was found to be 256 °C.

`CCCCCN` [1-aminopentane] showed a melting point of -55 °C.

For `C=CCc1cc(OC)c(O)c(C(=O)NCCO)c1` [alibendol], the melting point worked out at 95 °C.

For `CCN(CC)c1ccc(C(=O)CBr)cc1` [2-bromo-4'-(diethylamino)acetophenone], the melting point worked out at 51 °C.

`CCCOC(=O)C1=C(C)NC(C)=C(C(=O)OCCC)C1c1cccc(OC)c1O`: the melting point is 167 °C.

`O=C1Cc2cccc(Br)c21` [5-bromobicyclo[4.2.0]octa-1,3,5-trien-7-one] showed a melting point of 82 °C.

As for `Oc1ccccc1O` [1,2-Dihydroxybenzene], the melting point stood at 105 °C.

`Clc1ccccn1` [2-chloropyridine] came in with a melting point of -46 °C.

For `Nc1ccc([N+](=O)[O-])cc1` [4-nitroaniline] [listing 2 of 2 here], the melting point came to 148 °C.

Consider `COc1cccc(B(O)O)c1` [3-methoxybenzeneboronic acid], for which the melting point worked out at 160 °C.

`CCCCCCCCCCCC#N` [dodecanonitrile] came in with a melting point of 4 °C.

Turning to `CCOC(=O)CSCCC1NC(C(=O)O)CS1` (stereo not given) [letosteine], the melting point stood at 142 °C.

The compound `COC(=O)[C@]1(C(=O)O)[C@@H]2CCC[C@@H]21` came in with a melting point of 137 °C.

`Nc1cc(Br)cnc1N` [5-bromo-2,3-diaminopyridine] returned a melting point of 157 °C.

As to `CC(=O)c1cnn(-c2ccccc2)c1C` [4-acetyl-5-methyl-1-phenyl-1h-pyrazole], the melting point amounted to 104 °C.

Turning to `N=C(N)NCCC[C@H](N)C(=O)O` [L-Arginine], the melting point was 221 °C.

In turn, `Oc1ccccc1I` [o-iodophenol] showed a melting point of 42 °C.

`C1CCCCCCCCCCCCCC1` [cyclopentadecane] gave a melting point of 62 °C.

Take `O=[N+]([O-])/C=C/c1ccc([N+](=O)[O-])cc1` [beta,4-dinitrostyrene]: the melting point came out at 204 °C.

Consider `O=C(O)CS(=O)(=O)c1ccccc1` [(phenylsulfonyl)acetic acid], for which the melting point came to 112 °C.

With `c1ccc(Oc2ccccc2)cc1` [phenyl_ether], the melting point is 28 °C.

For `CI` [iodomethane], the melting point was -66 °C.

As for `C[C@H](CCC(=O)O)[C@H]1CC[C@H]2[C@@H]3[C@@H](O)C[C@@H]4C[C@H](O)CC[C@]4(C)[C@H]3CC[C@]12C` [ursodeoxycholic acid], the melting point is 203 °C.

`c1ccc(-c2csc(-c3cccnc3)n2)cc1` [4-phenyl-2-(3-pyridyl)thiazole] gave a melting point of 54 °C.

With `CC/N=c1/nc(Cl)[nH]/c(=N\C(C)C)[nH]1` [Atrazine], the melting point is 177 °C.

`COc1ccccc1N1CCN(CCCC(=O)c2ccc(F)cc2)CC1` [fluanisone]: the melting point is 68 °C.

As to `CC(C)NCC(O)c1cc(O)cc(O)c1` (stereo not given) [metaproterenol], the melting point amounted to 100 °C.

The term melting point denotes the temperature of the solid-liquid transition.
